{"source": "patent US20260001875A1", "about": "“AMINOPYRIMIDINYL DERIVATIVES FOR THE TREATMENT OF PARKINSON'S DISEASE” (UNIVERSITY OF DUNDEE, priority 2022, published 2026)", "key": {"[1]": {"assay": "Pharmacokinetic study in mice (plasma, brain, CSF)", "assay_type": "in vivo, mouse", "settings": "for AUC(0-inf) / AUC(0-t) / half-life: male, C57BL/6, mouse; for half-life: read-out: metabolic half-life (converted)", "description": "PK profiling was outsourced and undertaken by Shanghai ChemPartner Co., Ltd. All animal experiments performed were conducted in compliance with the Institutional Animal Care and Use Committee (IACUC) and the Office of Laboratory Animal Welfare (OLAW) guidelines. Six- to eight-week-old C57BL/6 male mice purchased from Jihui Laboratory Animal Co. LTD were used in the study. […] The animals were restrained manually at the designated time points (0.083, 0.25, 0.5, 1, 2, 4, and 8 h); approximately, 110 μL of blood sample was collected via facial vein into K2EDTA tubes. Three mice per time point were used, resulting in a total of 21 mice for each administration route. The blood sample was put on ice and centrifuged at 2000 g for 5 min to obtain the plasma sample within 15 min. The plasma, brain, CSF samples were stored at approximately −70° C. until analysis. A 30 μL aliquot of plasma was added with 200 μL of internal standard (Glipozode, 40 ng/mL) in MeCN with 5% citri. The mixture was then vortexed for 1 min and then centrifuged for 10 min at 5800 rpm. The supernatant (100 μL) was transferred to a new plate. The solvent (1 μL) was injected to LC-MS/MS. LC-MS/MS instrument used: SCIEX LC-MS/MS-49 (Triple Quad 6500+). Data was analyzed by WinNonLin and Microsoft Excel."}, "LRRK2 pSer935": {"tested_on": "LRRK2 pSer935", "assay": "LRRK2 Ser935 dephosphorylation in PBMC", "assay_type": "cell-based, human", "settings": "time course at 300 nM", "description": "PBMC cells were separated from human blood following existing protocol (dx.doi.org/10.17504/protocols.io.bnhxmb7n) and pelleted by centrifugation at 1000 g for 2 min. The supernatant was discarded and the PBMC pellet was resuspended in PBS containing 2% FBS for washing. The suspension was centrifuged at 1000 g for 2 min again and the PBMC pellet was resuspended in RPMI-1640 (Gibco) media supplemented with 10% FBS. The cells were then seeded into 6-well plates and treated with testing compounds at indicated concentrations and time period. After treatment, the cells were collected into 2-ml Eppendorf tube and centrifuged at 500 g for 2 min to pellet the cells, the supernatant was discarded, and the pellet was resuspended in 1 ml PBS and centrifuged at 500 g for 2 min again. […] The supernatants were collected for analysis by quantitative immunoblotting. […] Protein concentrations of cell lysates were determined using Pierce™ BCA Protein Assay Kit (ThermoFisher).\nCell lysates containing a quarter of a volume of 4× NuPAGE LDS sample buffer (NP0007) supplemented with 5% β-mercaptoethanol, were heated at 95° C. for 5 minutes. […] Thereafter, the membranes were washed with TBS-T three times with a 15-minute incubation for each wash, and protein bands were acquired via near-infrared fluorescent detection using the Odyssey CLx imaging system and quantified using Image Studio software. […]"}, "[2]": {"settings": "CSF, intravenous 5 mg/Kg single dose"}, "[3]": {"settings": "brain, gavage (oral) 30 mg/Kg single dose"}, "[4]": {"settings": "brain, intraperitoneal 30 mg/Kg single dose"}, "[5]": {"settings": "brain, intravenous 5 mg/Kg single dose"}, "[6]": {"settings": "ip, brain, intraperitoneal 30 mg/Kg single dose"}, "[7]": {"settings": "gavage (oral) 30 mg/Kg single dose"}, "[8]": {"settings": "intraperitoneal 30 mg/Kg single dose"}}, "note": "Entries after “also recorded” stand apart in the source; their conditions may differ. Read-outs that look alike come from different tables or passages of the source."}
{"smiles": "CNc1nc(Nc2ccc(C(=O)N3CCN(C[C@H]4CC[C@H](CSC(C)(C)[C@H](NC(=O)C5(F)CC5)C(=O)N5C[C@H](O)CC5C(=O)NCc5ccc(-c6scnc6C)cc5)CC4)CC3)cc2OC)ncc1Cl", "note": "(stereo partly drawn) [XL01126, (2S,4R)-1-((R)-3-((((1R,4R)-4-((4-(4-((5-chloro-4-(methylamino)pyrimidin-2-yl)amino)-3-methoxybenzoyl)piperazin-1-yl)methyl)cyclohexyl)methyl)thio)-2-(1-fluorocyclopropane-1-carboxamido)-3-methylbutanoyl)-4-hydroxy-N-(4-(4-methylthiazol-5-yl)benzyl)pyrrolidine-2-carboxamide]", "values": [{"measurement": "maximum concentration in cerebrospinal fluid (CSF)", "setting": "[1]; [2]", "result": 27.4, "unit": "ng/mL"}, {"measurement": "time of maximum concentration in CSF", "setting": "[1]; [2]", "result": 0.083, "unit": "h"}, {"measurement": "maximum concentration in brain tissue", "setting": "[1]; [3]", "result": 27, "unit": "ng/mL"}, {"measurement": "time of maximum concentration in brain tissue", "setting": "[1]; [3]", "result": 2, "unit": "h"}, {"measurement": "maximum concentration in brain tissue", "setting": "[1]; [4]", "result": 218, "unit": "ng/mL"}, {"measurement": "time of maximum concentration in brain tissue", "setting": "[1]; [4]", "result": 0.5, "unit": "h"}, {"measurement": "maximum concentration in brain tissue", "setting": "[1]; [5]", "result": 155, "unit": "ng/mL"}, {"measurement": "time of maximum concentration in brain tissue", "setting": "[1]; [5]", "result": 0.083, "unit": "h"}, {"measurement": "reaches CSF (in words)", "setting": "[1]; intraperitoneal 30 mg/Kg and orally 30 mg/Kg", "result": "also reaches CSF"}, {"measurement": "blood brain barrier penetration (in words)", "setting": "[1]; intravenous 5 mg/Kg, intraperitoneal 30 mg/Kg, oral 30 mg/Kg", "result": "capable of penetrating blood brain barrier; also recorded: can penetrant blood brain barrier"}, {"measurement": "AUC(0-inf)", "setting": "[1]; [2]", "result": 240, "unit": "ng·h/mL"}, {"measurement": "AUC(0-t)", "setting": "[1]; [2]", "result": 107, "unit": "ng·h/mL"}, {"measurement": "half-life", "setting": "[1]; [2]", "result": 8.59, "unit": "h"}, {"measurement": "AUC(0-inf)", "setting": "[1]; [3]", "result": 402, "unit": "ng·h/mL"}, {"measurement": "AUC(0-t)", "setting": "[1]; [3]", "result": 142, "unit": "ng·h/mL"}, {"measurement": "half-life", "setting": "[1]; [3]", "result": 10.7, "unit": "h"}, {"measurement": "AUC(0-inf)", "setting": "[1]; [5]", "result": 349, "unit": "ng·h/mL"}, {"measurement": "AUC(0-t)", "setting": "[1]; [5]", "result": 258, "unit": "ng·h/mL"}, {"measurement": "half-life", "setting": "[1]; [5]", "result": 3.67, "unit": "h"}, {"measurement": "AUC(0-inf)", "setting": "[1]; [6]", "result": 884, "unit": "ng·h/mL"}, {"measurement": "AUC(0-t)", "setting": "[1]; [6]", "result": 752, "unit": "ng·h/mL"}, {"measurement": "half-life", "setting": "[1]; [6]", "result": 2.79, "unit": "h"}, {"measurement": "maximum plasma concentration", "setting": "[1]; [7]", "result": 3620, "unit": "ng/mL"}, {"measurement": "time of maximum plasma concentration", "setting": "[1]; [7]", "result": 2, "unit": "h"}, {"measurement": "maximum plasma concentration", "setting": "[1]; [8]", "result": 7700, "unit": "ng/mL"}, {"measurement": "time of maximum plasma concentration", "setting": "[1]; [8]", "result": 0.25, "unit": "h"}, {"measurement": "T1/2 of LRRK2 dephosphorylation in PBMC", "setting": "LRRK2 pSer935", "result": 1, "unit": "h"}]}
